Results on 20 compounds are retold here after article PMC8198181, “Evaluation of Substituted N-Phenylpiperazine Analogs as D3 vs. D2 Dopamine Receptor Subtype Selective Ligands” (Molecules, 2021).

The inhibition is the drop in the measured response relative to a control, in per cent. In general, Ki refers to the dissociation constant of the complex between target and ligand, obtained from inhibition or displacement.

Several values for one entry are separate records, joined by “and”; a condition that tells them apart may be missing. Equal entries are not always repeated. Entries after “also recorded” stand apart in the source; their conditions may differ. Where two headings read alike, the source gives them in different places.

In one experiment the target is T1, human 5-HT1A receptor (Homo sapiens, UniProt P08908).
T1 construct: expressed in transfected cells; host or cells: CHO-K1
T1 sequence (P08908 1-422): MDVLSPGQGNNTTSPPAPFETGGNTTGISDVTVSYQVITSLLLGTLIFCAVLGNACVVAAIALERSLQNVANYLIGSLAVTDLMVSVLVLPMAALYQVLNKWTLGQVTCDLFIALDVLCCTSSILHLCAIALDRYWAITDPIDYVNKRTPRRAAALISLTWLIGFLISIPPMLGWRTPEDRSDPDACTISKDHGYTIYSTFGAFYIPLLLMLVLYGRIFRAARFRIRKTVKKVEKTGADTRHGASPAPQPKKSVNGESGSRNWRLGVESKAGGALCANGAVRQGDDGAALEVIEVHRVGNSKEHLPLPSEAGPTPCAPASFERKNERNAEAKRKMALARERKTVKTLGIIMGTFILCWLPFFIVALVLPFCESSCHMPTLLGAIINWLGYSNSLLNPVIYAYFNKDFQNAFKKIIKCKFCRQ
Description: 5-HT1A receptor binding ([3H]8-hydroxy-DPAT displacement, CHO-K1 membranes). Particulars: for inhibition at 0.091 µM: single point displacement of [3H]-8-hydroxy-DPAT, 91 nM test compound, CHO-K1, ± S.E.M., n ≥ 3; for 5-HT1A receptor affinity/displacement in words: radioligand displacement assessment at 91 nM. Here is the method:
Because the 5-HT1A receptor is a commonly observed off-site binding site for benzamide N-phenylpiperazine ligands, compounds were simultaneously screened for binding of our compounds at the human 5-HT1A receptor expressed in CHO-K1 cells, using the radioligand [^3H]-8-hydroxy-DPAT (8-OH-DPAT) (Table 2). Based upon the analysis of the displacement assay shown in Table 2, the orthosteric compounds 3c–f appeared to bind with low affinity at human 5-HT1A receptors.
10 μg of membranes from CHO-K1 cells expressing the human 5-HT1A receptor were suspended in 50 mM Tris-HCl, 10 mM MgSO4, 0.5 mM EDTA, and 0.1% (w/v) ascorbic acid, pH 7.4 and test ligands (91 nM for single point radioligand displacement assay and 1 nM to 1 μM for full competition assay) were incubated with 0.25 nM [^3H]8-hydroxy-DPAT (PerkinElmer, Boston, MA, USA) for 60 min at room temperature. The nonspecific binding was determined using 10 μM metergoline (Sigma, St. Louis, MO, USA). After incubation, the bound ligands were filtered using an M-24 Brandel filtration system (Brandel, Gaithersburg, MD, USA), collected on glass fiber papers (Whatman grade 934-AH, GE Healthcare Bio-Sciences, Pittsburgh, PA, USA), and the radioactivity was quantitated using a MicroBeta2 Microplate scintillation counter 2450 (PerkinElmer, Boston, MA, USA).
Background: Displacement assays read how much labelled ligand stays bound in the presence of the test substance.

In experiment [1] the target is T2, D3 dopamine receptor (Homo sapiens, UniProt P35462). Description: β-arrestin binding assay (DiscoverX PathHunter, DRD3-U2OS cells). It counts as cell-based. Also noted: host or cells: U2OS (PathHunter eXpress DRD3-U2OS). Particulars: human D3, test compound at 10x Ki, normalized to quinpirole. Here is the method: (§1) Quinpirole was used as a reference prototypic full agonist and haloperidol was used as a reference prototypic antagonist.
The β-arrestin binding assay was performed using a DiscoverX Pathhunter® kit according to the manufacturer’s instructions. PathHunter® eXpress β-Arrestin GPCR cells are engineered to co-express the ProLink™ (PK) tagged GPCR and the Enzyme Acceptor (EA) tagged β-Arrestin. Activation of the GPCR-PK induces β-Arrestin-EA recruitment, forcing complementation of the two β-galactosidase enzyme fragments (EA and PK). The resulting functional enzyme hydrolyzes substrate to generate a chemiluminescent signal. DRD3-U2OS cells were seeded according to kit instructions into white plastic 96-well plates (provided with the kit) 48 h prior to the assay in a volume of 100 μL/well using the Cell Plating Reagent (CPR) provided. Vehicle or test drug, diluted in CPR, was added to the designated wells and incubated for 90 min at 37 °C. Working detection solution (a component provided with the kit) was added to the wells and incubated for 1 h in the dark at room temperature. As discussed for the cyclase assay, an Enspire Alpha 2390 Multilabel Reader/Luminometer was used to detect the luminescent signal with haloperidol and quinpirole used as reference antagonist and full agonist, respectively.
(§2) Figure 3 Comparison of the Efficacy of Phenylthiophene Analogs for Adenylyl Cyclase Inhibition and β-Arrestin Binding at Human D3 Dopamine Receptors. […] Values were normalized to reference full agonist quinpirole (10,000 nM).

Experiment [2] concerns the target T2, D3 dopamine receptor. Description: Forskolin-dependent adenylyl cyclase inhibition assay (cAMP-Glo, HEK cells). It counts as cell-based. Also noted: expressed in transfected cells; host or cells: HEK293. Particulars: human D3, test compound at 10x Ki, normalized to quinpirole 10,000 nM. The procedure: as §1
The forskolin-dependent adenylyl cyclase inhibition assay was performed using a cAMP-Glo Assay kit (Promega). For this assay cAMP stimulates protein kinase A (PKA) activity, which leads to a decrease in ATP levels and a decrease in the luciferase-coupled production of light. This is a 96 well plate assay using HEK cells stably transfected to express the human D3 dopamine receptor (10,000 cells/well/0.1 mL complete media). After removing media and rinsing with phosphate buffered saline, cells were incubated with 20 μL of forskolin (6000 nM) and test compound or vehicle. […] After cells, test compound (or vehicle) and forskolin (or vehicle) were incubated for 15 min, cells were lysed using 20 μL lysis buffer (provided with the kit) and mixed for 15 min at room temperature. A cAMP Detection Solution (40 μL) was added to each well, gently mixed for 60 s and incubated at room temperature for 20 min. The Kinase-Glo Solution was added (40 μL) to terminate the PKA reaction. The reaction mixture was gently mixed for 60 s and then incubated at room temperature for 10 min. The remaining ATP was detected via a luciferase reaction. The plates were read using an Enspire Alpha 2390 Multilabel Reader/Luminometer. Haloperidol (200 nM) and quinpirole (10,000 nM) was used as a prototypic reference antagonist and full agonist, respectively.
as §2

Experiment [3] has as its target T2, D3 dopamine receptor. Particulars: for D2:D3 Selectivity: ratio of D2 and D3 Ki values (Table 1).
Description: Competitive radioligand binding techniques were used to determine the Ki values of ligands at human D2 and D3 dopamine receptors expressed in stably transfected HEK cells (Table 1).
The final radioligand concentration was approximately equal to the Kd value for the binding of the radioligand. […] For each competition curve, triplicates were performed using two concentrations of inhibitor per decade over five orders of magnitude.
The competition curves were modeled for a single binding site using Bs = Bo − ((Bo + L)/(IC50 + L)) where Bs is the amount of ligand bound to receptor and Bo is the amount of ligand bound to receptor in the absence of competitive inhibitor. L is the concentration of the competitive inhibitor. […] The values for Bs and Bo were constrained using experimentally derived values. The IC50 values were converted to equilibrium dissociation constants (Ki) [50, 51]. Mean Ki values ± S.E.M. are reported for at least three independent experiments.
In experiment [4] the target is T2, D3 dopamine receptor. Also noted: method as in PMID 15582454. To be noted: cited from earlier work.
Experiment [5] deals with human D3 dopamine receptor. Particulars: read-out: Ki D3 (hD3), previously published; Figure 1 and text; cited from earlier work.

T2 sequence (P35462 whole entry, the tested form may be a part): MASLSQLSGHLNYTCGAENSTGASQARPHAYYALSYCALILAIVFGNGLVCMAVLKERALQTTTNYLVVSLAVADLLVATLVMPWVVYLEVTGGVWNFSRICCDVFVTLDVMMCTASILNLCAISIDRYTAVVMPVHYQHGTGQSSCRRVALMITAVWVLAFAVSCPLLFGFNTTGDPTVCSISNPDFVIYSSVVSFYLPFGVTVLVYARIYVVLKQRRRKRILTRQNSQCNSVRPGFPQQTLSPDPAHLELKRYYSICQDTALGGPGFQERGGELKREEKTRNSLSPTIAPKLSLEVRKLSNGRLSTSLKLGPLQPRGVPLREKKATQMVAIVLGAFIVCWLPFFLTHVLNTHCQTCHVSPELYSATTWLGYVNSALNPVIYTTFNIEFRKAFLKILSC

For the compound `O=C(NCCCCN1CCN(c2ccc(F)cc2)CC1)c1ccc(-c2ccsc2)cc1` [Compound 6c], at human 5-HT1A receptor, the inhibition at 0.091 µM is -7.7 ± 23.5%. Further, the “efficacy in β-arrestin binding assay” value on D3 dopamine receptor [1] is reported as “very weak partial agonist/antagonist”. Further, the “efficacy in adenylyl cyclase inhibition assay” value at D3 dopamine receptor [2] is given as “weak partial agonist”. On D3 dopamine receptor [3], the Ki worked out at 12.4 ± 1.6 nM and the “D2:D3 Selectivity” value is 579.

With `O=C(NCCCCN1CCN(c2ccc(F)cc2OCCF)CC1)c1ccc(-c2ccsc2)cc1` [Compound 6f], the inhibition at 0.091 µM at human 5-HT1A receptor is 16.9 ± 24.4%. Besides, at D3 dopamine receptor [3], the Ki is 6.1 ± 0.2 nM and the “D2:D3 Selectivity” value was 67.4.

Consider `N#Cc1ccc(F)c(N2CCN(CCCCNC(=O)c3ccc(-c4ccsc4)cc3)CC2)c1` [Compound 6d], for which the inhibition at 0.091 µM at human 5-HT1A receptor worked out at 2.5 ± 3.5%. Moreover, the “efficacy in β-arrestin binding assay” value at D3 dopamine receptor [1] was “antagonists”. The “efficacy in adenylyl cyclase inhibition assay” value on D3 dopamine receptor [2] was “antagonists”. In addition, at D3 dopamine receptor [3], affinity was put at a Ki of 15.5 ± 1.3 nM and the “D2:D3 Selectivity” value stood at 290.

In the case of `O=C(NCCCCN1CCN(c2cccc(F)c2)CC1)c1ccc(-c2cscn2)cc1` [Compound 7b], on human 5-HT1A receptor, the “5-HT1A receptor affinity/displacement in words” value is “substantial affinity” and the inhibition at 0.091 µM was determined as 74.1 ± 5.3%. At D3 dopamine receptor [3], the inhibition constant Ki came to 24 ± 5.5 nM and the “D2:D3 Selectivity” value is 165.

Regarding `O=C(NCCCCN1CCN(c2ccc(F)cc2)CC1)c1ccc(-c2cscn2)cc1` [Compound 7c], the inhibition at 0.091 µM on human 5-HT1A receptor turned out to be 12.2 ± 3.1%. On D3 dopamine receptor [3], the affinity, expressed as Ki, was 28.6 ± 2.1 nM and the “D2:D3 Selectivity” value worked out at 140.

`O=C(NCCCCN1CCN(c2cccc(F)c2)CC1)c1ccc(-c2ccsc2)cc1` [Compound 6b]: on human 5-HT1A receptor, the “5-HT1A receptor affinity/displacement in words” value is “substantial affinity” and the inhibition at 0.091 µM stood at 74.7 ± 1.9%. Moreover, on D3 dopamine receptor [1], the “efficacy in β-arrestin binding assay” value is recorded as “weak partial agonists”. Moreover, the “efficacy in adenylyl cyclase inhibition assay” value at D3 dopamine receptor [2] is given as “weak partial agonists”. For the same compound, at D3 dopamine receptor [3], affinity was put at a Ki of 7.9 ± 1.4 nM and the “D2:D3 Selectivity” value was 296.

As for `CCCCN1CCN(c2ccc(F)cc2)CC1` [Compound 3c], at human 5-HT1A receptor, the inhibition at 0.091 µM stood at 5.1 ± 11.2%. Besides, at D3 dopamine receptor [3], the inhibitory constant (Ki) was determined as 1180 ± 240 nM and the “D2:D3 Selectivity” value was found to be 2.6.

As to `CCCCN1CCN(c2ccc(C(F)(F)F)cc2F)CC1` [Compound 3e], the inhibition at 0.091 µM at human 5-HT1A receptor was -11.6 ± 15.4%. Also, at D3 dopamine receptor [3], the Ki amounted to 1410 ± 59.1 nM and the “D2:D3 Selectivity” value turned out to be 5.3.

For the compound `O=C(NCCCCN1CCN(c2ccccc2OCCF)CC1)c1ccc(-c2ccsc2)cc1` [LS-3-134], the “% of maximum efficacy, adenylyl cyclase inhibition assay” value on D3 dopamine receptor [4] was 35% and 34.4 ± 1.7%.

With `O=C(NCCCCN1CCN(c2ccccc2F)CC1)c1ccc(-c2cscn2)cc1` [Compound 7a], the Ki on human 5-HT1A receptor (full competition curve, [3H]-8-hydroxy-DPAT, at least three experiments, read-out: Ki at 5-HT1A receptor) stood at 14.3 ± 7.1 nM. For the same compound, at human 5-HT1A receptor, the “5-HT1A receptor affinity/displacement in words” value was “substantial affinity; also recorded: increased affinity” and the inhibition at 0.091 µM amounted to 65.8 ± 5%. Moreover, on D3 dopamine receptor [3], affinity was put at a Ki of 2.5 ± 0.22 nM and the “D2:D3 Selectivity” value turned out to be 190.

On to `O=C(NCCCCN1CCN(c2cccc(Cl)c2Cl)CC1)c1ccc(-c2ccccn2)cc1` [PG 01037], for which, in experiment [5], the inhibition constant Ki was 0.7 nM.

With `CCCCN1CCN(c2cc(C#N)ccc2F)CC1` [Compound 3d], the inhibition at 0.091 µM on human 5-HT1A receptor was -18 ± 11.1%. At D3 dopamine receptor [3], affinity was put at a Ki of 726 ± 101 nM and the “D2:D3 Selectivity” value was found to be 7.5.

Consider `N#Cc1ccc(F)c(N2CCN(CCCCNC(=O)c3ccc(-c4cscn4)cc3)CC2)c1` [Compound 7d], for which the inhibition at 0.091 µM at human 5-HT1A receptor was -5.6 ± 18.3%. Also, at D3 dopamine receptor [3], the Ki stood at 28.1 ± 0.8 nM and the “D2:D3 Selectivity” value worked out at 274.

Regarding `O=C(NCCCCN1CCN(c2ccc(F)cc2OCCF)CC1)c1ccc(-c2cscn2)cc1` [Compound 7f], on human 5-HT1A receptor, the “5-HT1A receptor affinity/displacement in words” value is given as “substantial affinity” and the inhibition at 0.091 µM was 37.1 ± 24.4%. Moreover, on D3 dopamine receptor [3], the affinity, expressed as Ki, was 4.8 ± 0.28 nM and the “D2:D3 Selectivity” value is on record as 72.9.

In the case of `O=C(NCCCCN1CCN(c2ccc(C(F)(F)F)cc2F)CC1)c1ccc(-c2cscn2)cc1` [Compound 7e], the inhibition at 0.091 µM at human 5-HT1A receptor was found to be 7.6 ± 6.5%. For the same compound, the “efficacy in β-arrestin binding assay” value on D3 dopamine receptor [1] was “antagonists”. The “efficacy in adenylyl cyclase inhibition assay” value at D3 dopamine receptor [2] is listed as “antagonists”. The compound also displayed a Ki on D3 dopamine receptor [3] of 30.9 ± 2.6 nM.

`CCCCN1CCN(c2cccc(F)c2)CC1` [Compound 3b]: at human 5-HT1A receptor, the “5-HT1A receptor affinity/displacement in words” value was “partially displace” and the inhibition at 0.091 µM came to 36.1 ± 2.1%. Besides, on D3 dopamine receptor [3], the inhibition constant (Ki) was 1000 ± 118 nM and the “D2:D3 Selectivity” value was 2.5.

With `CCCCN1CCN(c2ccc(F)cc2OCCF)CC1` [Compound 3f], on human 5-HT1A receptor, the inhibition at 0.091 µM turned out to be 1.7 ± 21.7%. Further, on D3 dopamine receptor [3], the inhibition constant (Ki) was 351 ± 42.1 nM and the “D2:D3 Selectivity” value was determined as 1.0.

Consider `O=C(NCCCCN1CCN(c2ccc(C(F)(F)F)cc2F)CC1)c1ccc(-c2ccsc2)cc1` [Compound 6e], for which, on human 5-HT1A receptor, the inhibition at 0.091 µM stood at 6.1 ± 6.8%. Moreover, at D3 dopamine receptor [3], the Ki worked out at 43.3 ± 9.2 nM and the “D2:D3 Selectivity” value is recorded as more than 1800.

With `CCCCN1CCN(c2ccccc2F)CC1` [Compound 3a], on human 5-HT1A receptor, the Ki was determined as 67.8 ± 4.6 nM, the “5-HT1A receptor affinity/displacement in words” value is recorded as “partially displace; also recorded: moderate affinity” and the inhibition at 0.091 µM was 20.3 ± 16.2%. For the same compound, on D3 dopamine receptor [3], the affinity corresponds to a Ki of 96.2 ± 16.9 nM and the “D2:D3 Selectivity” value is given as 4.0.

As for `O=C(NCCCCN1CCN(c2cccc(Cl)c2Cl)CC1)c1ccc2c(c1)Cc1ccccc1-2` [NGB 2904], the Ki in experiment [5] is 2 nM.
